Data from ChEMBL document CHEMBL4321794, “Discovery and Optimization of 2-Arylquinazolin-4-ones into a Potent and Selective Tankyrase Inhibitor Modulating Wnt Pathway Activity” (J Med Chem, 2019).
≈ marks a conversion by molar mass, not a printed value.

Columns and labels:
[1] = Intrinsic clearance in human liver microsomes assessed per mg protein in presence of NADPH by UPLC analysis; assay type: ADME, Microsome; conditions: read-out: CLH
[2] = target: T1, Protein mono-ADP-ribosyltransferase PARP3 (Homo sapiens, UniProt Q9Y6F1); test: Inhibition of N-terminal GST-tagged recombinant full length human PARP3 expressed in Baculovirus infected Sf9 cells using biotinylated substrate after 1 hr by chemiluminescence method
T1 sequence (Q9Y6F1 whole entry): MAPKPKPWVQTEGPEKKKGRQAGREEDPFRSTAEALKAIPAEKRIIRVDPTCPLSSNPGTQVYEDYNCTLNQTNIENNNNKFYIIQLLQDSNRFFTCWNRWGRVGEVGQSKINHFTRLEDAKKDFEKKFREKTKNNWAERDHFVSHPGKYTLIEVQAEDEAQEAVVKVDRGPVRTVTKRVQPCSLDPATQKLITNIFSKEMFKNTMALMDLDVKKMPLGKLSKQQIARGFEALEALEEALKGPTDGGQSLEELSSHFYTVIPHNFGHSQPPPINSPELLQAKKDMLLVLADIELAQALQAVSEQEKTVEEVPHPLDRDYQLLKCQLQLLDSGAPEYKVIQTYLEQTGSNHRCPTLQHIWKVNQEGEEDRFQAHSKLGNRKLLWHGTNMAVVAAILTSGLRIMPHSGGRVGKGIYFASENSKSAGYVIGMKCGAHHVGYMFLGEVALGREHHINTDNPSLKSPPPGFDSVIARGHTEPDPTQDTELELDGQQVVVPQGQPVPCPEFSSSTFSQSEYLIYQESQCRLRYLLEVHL

[3] = Intrinsic clearance in mouse hepatocytes assessed per million cells; assay type: ADME, cell-based, Hepatocyte; conditions: read-out: CLH
[4] = target: T2, Protein mono-ADP-ribosyltransferase PARP10 (Homo sapiens, UniProt Q53GL7); test: Inhibition of human N-terminal FLAG-tagged/C-terminal Strep-tagged PARP10 (805 to 1025 residues) expressed in baculovirus infected Sf9 insect cells using biotinylated substrate by chemiluminescence method
T2 sequence (Q53GL7 whole entry): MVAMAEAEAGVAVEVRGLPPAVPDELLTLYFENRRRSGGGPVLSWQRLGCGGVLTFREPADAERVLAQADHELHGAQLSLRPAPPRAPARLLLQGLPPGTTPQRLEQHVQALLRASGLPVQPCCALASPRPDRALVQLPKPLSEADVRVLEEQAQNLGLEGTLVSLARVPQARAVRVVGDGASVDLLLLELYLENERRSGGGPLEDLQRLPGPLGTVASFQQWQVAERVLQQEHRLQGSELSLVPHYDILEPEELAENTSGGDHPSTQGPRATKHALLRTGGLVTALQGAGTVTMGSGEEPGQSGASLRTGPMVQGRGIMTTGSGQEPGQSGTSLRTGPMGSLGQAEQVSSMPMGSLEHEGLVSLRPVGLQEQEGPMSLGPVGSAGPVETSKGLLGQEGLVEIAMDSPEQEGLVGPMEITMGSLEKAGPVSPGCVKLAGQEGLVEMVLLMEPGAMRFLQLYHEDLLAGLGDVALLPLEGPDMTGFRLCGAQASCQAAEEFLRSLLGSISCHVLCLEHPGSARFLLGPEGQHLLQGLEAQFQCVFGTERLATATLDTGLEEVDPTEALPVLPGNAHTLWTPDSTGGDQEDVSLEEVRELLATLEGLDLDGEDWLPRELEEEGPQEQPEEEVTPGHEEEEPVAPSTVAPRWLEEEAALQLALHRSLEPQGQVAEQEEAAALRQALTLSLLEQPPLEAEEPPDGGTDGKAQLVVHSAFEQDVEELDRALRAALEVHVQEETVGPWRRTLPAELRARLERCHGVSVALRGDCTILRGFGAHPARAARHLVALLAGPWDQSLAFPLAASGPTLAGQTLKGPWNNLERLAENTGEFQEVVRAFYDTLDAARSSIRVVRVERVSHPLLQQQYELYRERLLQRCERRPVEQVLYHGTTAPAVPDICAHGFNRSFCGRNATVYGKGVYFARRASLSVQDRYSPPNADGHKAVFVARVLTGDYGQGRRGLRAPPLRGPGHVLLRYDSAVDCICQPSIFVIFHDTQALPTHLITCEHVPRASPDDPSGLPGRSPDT

[5] = Time at which free-drug concentration exceeds in vitro cellular EC50 for inhibition of tankyrase 1/2 in human DLD1 cells assessed as increase in axin2 accumulation in mouse xenografted with human DLD1 at 30 mg/kg, po administered via gavage; assay type: organism-based; conditions: in vivo
[6] = Intrinsic clearance in human hepatocytes assessed per million cells; assay type: ADME, cell-based, Hepatocyte; conditions: read-out: CLH
[7] = Thermodynamic solubility in phosphate buffer at pH 7.4 at 2 mg incubated under shaking condition for 6 hrs followed by rechecking and readjusting pH to 7.4 and further incubated for 18 hrs by HPLC/UV detection method; assay type: physicochemical; conditions: read-out: Therm_solubility
[8] = target: Poly [ADP-ribose] polymerase 2 (Homo sapiens, UniProt Q9UGN5); test: Inhibition of N-terminal GST-tagged recombinant human PARP2 (2 to 583 residues) expressed in Baculovirus infected Sf9 cells using biotinylated substrate after 1 hr by chemiluminescence method
Mus musculus = test: Ex vivo inhibition of tankyrase 1/2 in human DLD1 cells xenografted in immunodeficient athymic nude mouse assessed as increase in axin-2 level in tumor lysates at 10 to 90 mg/kg, po administered via gavage by luminex based bead assay; assay type: functional, organism-based; conditions: Neoplasm, Lysate, TDE = time-dependent effect
[9] = target: T3, Protein mono-ADP-ribosyltransferase PARP12 (Homo sapiens, UniProt Q9H0J9); test: Inhibition of human N-terminal His/GST-tagged PARP12 (500 to 701 residues) expressed in baculovirus infected Sf9 insect cells using biotinylated substrate by chemiluminescence method
T3 sequence (Q9H0J9 whole entry): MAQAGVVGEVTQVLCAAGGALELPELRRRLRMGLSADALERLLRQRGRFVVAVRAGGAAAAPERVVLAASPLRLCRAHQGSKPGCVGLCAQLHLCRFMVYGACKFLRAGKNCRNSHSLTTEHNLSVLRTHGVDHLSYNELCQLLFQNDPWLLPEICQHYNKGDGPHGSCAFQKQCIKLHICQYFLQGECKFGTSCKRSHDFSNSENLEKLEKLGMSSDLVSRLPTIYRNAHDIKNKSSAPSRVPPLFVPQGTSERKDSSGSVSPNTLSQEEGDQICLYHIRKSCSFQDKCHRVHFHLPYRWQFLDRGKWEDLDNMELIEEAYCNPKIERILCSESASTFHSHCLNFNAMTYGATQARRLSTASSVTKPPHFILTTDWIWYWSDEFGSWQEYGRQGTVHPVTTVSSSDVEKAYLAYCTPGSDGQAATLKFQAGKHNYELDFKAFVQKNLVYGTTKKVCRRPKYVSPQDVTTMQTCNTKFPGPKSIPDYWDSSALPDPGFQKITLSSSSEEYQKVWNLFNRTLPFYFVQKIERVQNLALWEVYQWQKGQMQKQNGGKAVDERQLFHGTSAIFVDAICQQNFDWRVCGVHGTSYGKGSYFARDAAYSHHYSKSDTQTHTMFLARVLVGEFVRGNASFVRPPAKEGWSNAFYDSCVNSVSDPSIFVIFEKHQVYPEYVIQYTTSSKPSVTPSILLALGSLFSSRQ

Poly [ADP-ribose] polymerase 2, sequence (Q9UGN5 whole entry, the tested form may be a part): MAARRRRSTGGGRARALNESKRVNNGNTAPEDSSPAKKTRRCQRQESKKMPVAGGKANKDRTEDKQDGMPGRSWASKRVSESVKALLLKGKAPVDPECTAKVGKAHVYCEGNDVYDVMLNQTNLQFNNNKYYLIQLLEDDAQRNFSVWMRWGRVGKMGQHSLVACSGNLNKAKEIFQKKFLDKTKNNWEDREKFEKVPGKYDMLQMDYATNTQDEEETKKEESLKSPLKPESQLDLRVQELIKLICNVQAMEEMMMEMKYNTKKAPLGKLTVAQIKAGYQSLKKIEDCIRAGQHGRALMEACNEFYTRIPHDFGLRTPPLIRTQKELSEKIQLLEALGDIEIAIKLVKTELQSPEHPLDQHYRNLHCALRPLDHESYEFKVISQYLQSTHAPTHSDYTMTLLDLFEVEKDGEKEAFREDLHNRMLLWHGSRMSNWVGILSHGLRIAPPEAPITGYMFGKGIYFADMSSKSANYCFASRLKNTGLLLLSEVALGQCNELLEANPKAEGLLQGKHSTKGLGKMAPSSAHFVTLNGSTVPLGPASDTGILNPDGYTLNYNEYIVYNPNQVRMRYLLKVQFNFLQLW

microsomal CLint [1]: < 10 µL/min/mg
IC50 [2]: 1900 nM
hepatocyte CLint [3]: 15.2 µL/min/1e6 cells
IC50 [4]: > 10000 nM
T>fEC50 [5]: >= 12 hr
hepatocyte CLint [6]: 1.25 µL/min/1e6 cells
solubility thermodynamic at 24 h [7]: 31 µg/mL (≈ 98 µM)
IC50 [8]: 1000 nM
IC50 [9]: > 10000 nM
SMILES: CC(C)(O)c1ccc(-c2nc3c(F)cc(F)cc3c(=O)[nH]2)cc1
inhibition (Mus musculus): Tde
